Patent publication US20080139628A1 (ARENA PHARMACEUTICALS, INC., priority 2004, published 2008)

What was measured:
free fatty acid release = experiment: NEFA competition: free fatty acids in blood of mice (NEFA-C assay kit); format: in vivo; conditions: for concentration of free fatty acid: blood after 10 minutes (vehicle sample 0.9 mM)
Procedure: After 10 minutes the mice were euthanized and blood was collected. The blood samples were processed and tested for free fatty acid release using the non-esterified fatty-acid (NEFA) assay (the NEFA-C assay kit from Waco Chemicals USA, Richmond, Va.).

[1] = test system: niacin-induced flushing in mice; experiment: Block of niacin-induced flushing in mice, Laser Dopler; format: in vivo; conditions: for change from baseline (flush) at 3 minutes / change above baseline (flush) at 15 minutes: mice given compound about 10 minutes before niacin; for change from baseline (flush) at 3 minutes: 3 minutes after niacin; for change above baseline (flush) at 15 minutes: at/within 15 minutes after niacin
Procedure: Flushing was measured using a Laser Dopler.
In these experiments, the control group contained anesthetized mice that were administered niacin alone and flushing above baseline was measured over time. […]

mice = experiment: Flush in response to PGD2 in mice treated with niacin receptor partial agonist; format: in vivo; conditions: mice pretreated with Compound 1 and niacin
Procedure: After re-establishment of baseline, PGD2 was administered and flushing was recorded. […] Baseline was then re-established at 20% above baseline and PGD2 was administered.

[2] = test system: dysmenorrhea or painful menstruation; conditions: 80 women, 100 mg niacin twice daily, then every 2 to 3 hours during heavy cramps; cited from earlier work

With `C1Cc2[nH]nc(-c3nnn[nH]3)c2C1` [Compound 1, 3-(1H-Tetrazol-5-yl)-1,4,5,6-tetrahydro-cyclopentapyrazole] the “interference with the reduction in free fatty acids induced by niacin” value (free fatty acid release; Compound 1 plus niacin) was “does not interfere”, the “concentration of free fatty acid” value (free fatty acid release; Compound 1 plus niacin) was 0.38 mM and the “change from baseline (flush) at 3 minutes” value (“change from baseline (flush)” below) [1] was 10%. For the same compound, the “change above baseline (flush) at 15 minutes” value (“change above baseline (flush)” below) [1] was “about 20%” and the “flushing induced by niacin” value ([1]; mice, partial agonist given prior to niacin) was “significantly reduced”.
For `O=C(O)c1cc(Cc2cccc(F)c2)[nH]n1` [Compound 2, 5-(3-Fluoro-benzyl)-1H-pyrazole-3-carboxylic acid], the “change from baseline (flush)” value [1] was 0% and the “change above baseline (flush)” value [1] was “about 15%”.
For `O=C(O)c1cc(Cc2cccc(Cl)c2)[nH]n1` [Compound 3, 5-(3-Chloro-benzyl)-1H-pyrazole-3-carboxylic acid], the “change from baseline (flush)” value [1] was “about 18%” and the “change above baseline (flush)” value [1] was “about 13%”.
In the case of `O=C(O)c1cc(Cc2cccc(Br)c2)[nH]n1` [Compound 4, 5-(3-Bromo-benzyl)-1H-pyrazole-3-carboxylic acid], the “change from baseline (flush)” value [1] is reported as 15% and the “change above baseline (flush)” value [1] is reported as “about 30%”.
In the case of `CCCCC[C@H](O)/C=C/[C@H]1C(=O)C[C@H](O)[C@@H]1C/C=C\CCCC(=O)O` [PGD2, prostaglandin D2], the “time of flush peak after PGD2 administration” value (mice) is reported as “about 6 minutes”, the “time after PGD2 administration at which flushing began” value (mice; baseline re-established at 20% above baseline) is reported as “about 1.5 minutes” and the “flush peak, % of the original baseline” value (mice; about 6 minutes after PGD2) is reported as “about 70%”.
In the case of `O=C(O)c1cccnc1` [niacin, nicotinic acid, reference compound], the “concentration of free fatty acid” value (free fatty acid release; vehicle plus niacin) is listed as 0.4 mM, the “time after which mice began to flush” value ([1]; anesthetized mice, niacin alone) is listed as 1.5 min and the “subjects who experienced significant relief” value [2] is listed as “About 90%”.
